Species: Rattus norvegicus
Test: DrugMatrix - Regimen: Daily Repeat
Assay type: toxicity, organism-based, Sprague-Dawley
Parameters: regimen Daily Repeat, gender Male, age 6-8 weeks
Details: in vivo, po, route oral GAVAGE, […]; for ABSOLUTE BASOPHIL / ABSOLUTE EOSINOPHIL / ABSOLUTE LYMPHOCYTE / ABSOLUTE MONOCYTE / ABSOLUTE SEGMENTED NEUTROPHIL / BASOPHIL / EOSINOPHIL / ERYTHROCYTE COUNT / HEMATOCRIT / HEMOGLOBIN / LEUKOCYTE COUNT / LYMPHOCYTE / MEAN CORPUSCULAR HEMOGLOBIN / MEAN CORPUSCULAR HEMOGLOBIN CONCENTRATION / MEAN CORPUSCULAR VOLUME / MONOCYTE / NEUTROPHIL / NUCLEATED RED BLOOD CELLS / PLATELET COUNT: tissue Blood; for ALANINE AMINOTRANSFERASE / ALBUMIN / ALKALINE PHOSPHATASE / ASPARTATE AMINOTRANSFERASE / BLOOD UREA NITROGEN / CARBON DIOXIDE / CHLORIDE / CHOLESTEROL / CREATINE PHOSPHOKINASE / CREATININE / GLUCOSE / LACTATE DEHYDROGENASE / LIPASE / PHOSPHORUS / POTASSIUM / SODIUM / TOTAL BILIRUBIN / TOTAL PROTEIN / URIC ACID: tissue Plasma
[1] = 0 mg/kg, 72 h, dose level Control, time 3 day
[2] = 0 mg/kg, 120 h, dose level Control, time 5 day
[3] = 280 mg/kg, 72 h, dose level High, time 3 day

CC/C(=C(/CC)c1ccc(O)cc1)c1ccc(O)cc1 [DIETHYLSTILBESTROL]
ABSOLUTE BASOPHIL [1]: 0 CELLS/uL
ABSOLUTE EOSINOPHIL [1]: 14 CELLS/uL
ABSOLUTE LYMPHOCYTE [1]: 11144.67 CELLS/uL
ABSOLUTE MONOCYTE [1]: 22.5 CELLS/uL
ABSOLUTE SEGMENTED NEUTROPHIL [1]: 535.5 CELLS/uL
BASOPHIL [1]: 0%
EOSINOPHIL [1]: 0.17%
ERYTHROCYTE COUNT [1]: 5.08 x10E6/uL
HEMATOCRIT [1]: 32.32%
HEMOGLOBIN [1]: 12.87 G/DL
LEUKOCYTE COUNT [1]: 11.72 x10E3/uL
LYMPHOCYTE [1]: 94.67%
MEAN CORPUSCULAR HEMOGLOBIN [1]: 25.37 pg
MEAN CORPUSCULAR HEMOGLOBIN CONCENTRATION [1]: 39.85 G/DL
MEAN CORPUSCULAR VOLUME [1]: 63.58 fL
MONOCYTE [1]: 0.17%
NEUTROPHIL [1]: 5%
NUCLEATED RED BLOOD CELLS [1]: 0 /100WBC
PLATELET COUNT [1]: 1084 x10E3/uL
ALANINE AMINOTRANSFERASE [1]: 67.5 u/L
ALBUMIN [1]: 4.02 G/DL
ALKALINE PHOSPHATASE [1]: 374.17 u/L
ASPARTATE AMINOTRANSFERASE [1]: 83.5 u/L
BLOOD UREA NITROGEN [1]: 14.5 mg/dL
CARBON DIOXIDE [1]: 30 mmol/L
CHLORIDE [1]: 100.5 MEQ/L
CHOLESTEROL [1]: 71.33 mg/dL
CREATINE PHOSPHOKINASE [1]: 268.33 u/L
CREATININE [1]: 0.16 mg/dL
GLUCOSE [1]: 170.5 mg/dL
LACTATE DEHYDROGENASE [1]: 81.17 u/L
LIPASE [1]: 16.67 u/L
PHOSPHORUS [1]: 10.07 mg/dL
POTASSIUM [1]: 5.03 MEQ/L
SODIUM [1]: 142.92 MEQ/L
TOTAL BILIRUBIN [1]: 0.17 mg/dL
TOTAL PROTEIN [1]: 5.63 G/DL
URIC ACID [1]: 0.5 mg/dL
ABSOLUTE BASOPHIL [2]: 0 CELLS/uL
ABSOLUTE EOSINOPHIL [2]: 37.5 CELLS/uL
ABSOLUTE LYMPHOCYTE [2]: 8049.5 CELLS/uL
ABSOLUTE MONOCYTE [2]: 82.83 CELLS/uL
ABSOLUTE SEGMENTED NEUTROPHIL [2]: 646.83 CELLS/uL
BASOPHIL [2]: 0%
EOSINOPHIL [2]: 0.5%
ERYTHROCYTE COUNT [2]: 5.36 x10E6/uL
HEMATOCRIT [2]: 33.9%
HEMOGLOBIN [2]: 13.02 G/DL
LEUKOCYTE COUNT [2]: 8.82 x10E3/uL
LYMPHOCYTE [2]: 90.17%
MEAN CORPUSCULAR HEMOGLOBIN [2]: 24.32 pg
MEAN CORPUSCULAR HEMOGLOBIN CONCENTRATION [2]: 38.42 G/DL
MEAN CORPUSCULAR VOLUME [2]: 63.32 fL
MONOCYTE [2]: 1.17%
NEUTROPHIL [2]: 8.17%
NUCLEATED RED BLOOD CELLS [2]: 0.17 /100WBC
PLATELET COUNT [2]: 1231.5 x10E3/uL
ALANINE AMINOTRANSFERASE [2]: 62 u/L
ALBUMIN [2]: 3.97 G/DL
ALKALINE PHOSPHATASE [2]: 303.67 u/L
ASPARTATE AMINOTRANSFERASE [2]: 84.5 u/L
BLOOD UREA NITROGEN [2]: 14.83 mg/dL
CARBON DIOXIDE [2]: 31.83 mmol/L
CHLORIDE [2]: 97 MEQ/L
CHOLESTEROL [2]: 68.83 mg/dL
CREATINE PHOSPHOKINASE [2]: 411.33 u/L
CREATININE [2]: 0.16 mg/dL
GLUCOSE [2]: 170.17 mg/dL
LACTATE DEHYDROGENASE [2]: 88.5 u/L
LIPASE [2]: 9.5 u/L
PHOSPHORUS [2]: 9.98 mg/dL
POTASSIUM [2]: 5.72 MEQ/L
SODIUM [2]: 141.62 MEQ/L
TOTAL BILIRUBIN [2]: 0.1 mg/dL
TOTAL PROTEIN [2]: 5.67 G/DL
URIC ACID [2]: 0.52 mg/dL
ABSOLUTE BASOPHIL [3]: 0 CELLS/uL
ABSOLUTE EOSINOPHIL [3]: 42 CELLS/uL
ABSOLUTE LYMPHOCYTE [3]: 6341.67 CELLS/uL
ABSOLUTE MONOCYTE [3]: 46.67 CELLS/uL
ABSOLUTE SEGMENTED NEUTROPHIL [3]: 836.33 CELLS/uL
BASOPHIL [3]: 0%
EOSINOPHIL [3]: 0.67%
ERYTHROCYTE COUNT [3]: 5.06 x10E6/uL
HEMATOCRIT [3]: 31.5%
HEMOGLOBIN [3]: 12.2 G/DL
LEUKOCYTE COUNT [3]: 7.27 x10E3/uL
LYMPHOCYTE [3]: 87%
MEAN CORPUSCULAR HEMOGLOBIN [3]: 24.13 pg
MEAN CORPUSCULAR HEMOGLOBIN CONCENTRATION [3]: 38.77 G/DL
MEAN CORPUSCULAR VOLUME [3]: 62.27 fL
MONOCYTE [3]: 0.67%
NEUTROPHIL [3]: 11.67%
NUCLEATED RED BLOOD CELLS [3]: 0 /100WBC
PLATELET COUNT [3]: 1040.67 x10E3/uL
ALANINE AMINOTRANSFERASE [3]: 64 u/L
ALBUMIN [3]: 3.57 G/DL
ALKALINE PHOSPHATASE [3]: 625.67 u/L
ASPARTATE AMINOTRANSFERASE [3]: 73 u/L
BLOOD UREA NITROGEN [3]: 16 mg/dL
CARBON DIOXIDE [3]: 23 mmol/L
CHLORIDE [3]: 107.33 MEQ/L
CHOLESTEROL [3]: 31.33 mg/dL
CREATINE PHOSPHOKINASE [3]: 341 u/L
CREATININE [3]: 0.17 mg/dL
GLUCOSE [3]: 156.67 mg/dL
LACTATE DEHYDROGENASE [3]: 103.33 u/L
LIPASE [3]: 8 u/L
PHOSPHORUS [3]: 9 mg/dL
POTASSIUM [3]: 5.01 MEQ/L
SODIUM [3]: 147.7 MEQ/L
TOTAL BILIRUBIN [3]: 0.27 mg/dL
TOTAL PROTEIN [3]: 5.5 G/DL
URIC ACID [3]: 0.53 mg/dL
